Source: US4563527A, “Amidine compounds” (Torii & Co., Ltd., priority 1984, dated 1986)
Where two headings read alike, the source gives them in different places.

What was measured:
[1] = molecular target: T1, Trypsin (Bos taurus, UniProt P00760); assay: Anti-trypsin activity (hydrolysis of TAME); assay type: biochemical; conditions: molar concentration inhibiting 50% of TAME hydrolysis; read-out: ID50 trypsin
T1 sequence (P00760 24-246): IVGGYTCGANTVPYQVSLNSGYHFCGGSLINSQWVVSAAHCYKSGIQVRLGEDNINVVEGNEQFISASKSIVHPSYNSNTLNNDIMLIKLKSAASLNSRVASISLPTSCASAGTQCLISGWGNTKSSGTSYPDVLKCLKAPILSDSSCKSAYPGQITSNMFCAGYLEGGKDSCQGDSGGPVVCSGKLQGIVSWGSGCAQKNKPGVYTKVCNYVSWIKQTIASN
Description: (§1) The anti-trypsin, anti-plasmin, anti-kallikrein and anti-thrombin activities were determined according to the method of Muramatsu et al. [M. Muramatus, T. Onishi, S. Makino, Y. Hayashi and S. Fujii, J. of Biochem., 58, 214 (1965)]. The data summarized in Table 1 are expressed in terms of molar concentration (ID50) of the test compound which inhibits 50% of the activity of each enzyme to hydrolyze TAME (tosylalginine methyl ester). The compound No. corresponds to the compound number shown in Examples.

[2] = molecular target: Plasmin (Homo sapiens, UniProt P00747); assay: Anti-plasmin activity (hydrolysis of TAME); assay type: biochemical; conditions: molar concentration inhibiting 50% of TAME hydrolysis; read-out: ID50 plasmin
Description: The anti-trypsin, anti-plasmin, anti-kallikrein and anti-thrombin activities were determined according to the method of Muramatsu et al. [M. Muramatus, T. Onishi, S. Makino, Y. Hayashi and S. Fujii, J. of Biochem., 58, 214 (1965)]. […] The compound No. corresponds to the compound number shown in Examples.

[3] = system: Kallikrein; assay: Anti-kallikrein activity (hydrolysis of TAME); assay type: biochemical; conditions: molar concentration inhibiting 50% of TAME hydrolysis; read-out: ID50 kallikrein
Description: as §1

[4] = molecular target: Thrombin (Homo sapiens, UniProt P00734); assay: biochemical; conditions: for IC50: read-out: ID50 thrombin
[5] = molecular target: T2, C1r (Homo sapiens, UniProt P00736); assay: biochemical; conditions: molar concentration inhibiting 50% of AAME hydrolysis; read-out: ID50 C1r (Anti-C1 activity)
T2 sequence (P00736 464-705 limits assumed): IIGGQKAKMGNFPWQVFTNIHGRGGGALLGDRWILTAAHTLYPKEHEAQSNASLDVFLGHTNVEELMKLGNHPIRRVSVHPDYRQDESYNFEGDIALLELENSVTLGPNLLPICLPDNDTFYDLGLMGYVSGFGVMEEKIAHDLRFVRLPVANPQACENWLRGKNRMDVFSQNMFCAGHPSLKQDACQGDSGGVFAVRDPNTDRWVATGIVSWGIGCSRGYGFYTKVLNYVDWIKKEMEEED
T2 sequence (P00736 18-463 partner limits assumed): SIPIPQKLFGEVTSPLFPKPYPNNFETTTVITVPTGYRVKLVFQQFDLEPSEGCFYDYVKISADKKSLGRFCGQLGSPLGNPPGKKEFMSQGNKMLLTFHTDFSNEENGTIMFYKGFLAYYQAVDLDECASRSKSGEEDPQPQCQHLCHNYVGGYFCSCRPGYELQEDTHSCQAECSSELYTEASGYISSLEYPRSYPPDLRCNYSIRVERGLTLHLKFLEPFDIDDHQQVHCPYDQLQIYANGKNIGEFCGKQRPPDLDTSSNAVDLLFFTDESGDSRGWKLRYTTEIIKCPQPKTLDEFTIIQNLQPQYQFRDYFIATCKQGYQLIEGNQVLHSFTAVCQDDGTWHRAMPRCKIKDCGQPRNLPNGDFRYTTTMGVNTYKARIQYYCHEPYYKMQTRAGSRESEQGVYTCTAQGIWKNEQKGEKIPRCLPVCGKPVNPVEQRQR

[6] = molecular target: T3, C1s (Homo sapiens, UniProt P09871); assay: Anti-C1s activity (hydrolysis of ATEE); assay type: biochemical; conditions: molar concentration inhibiting 50% of ATEE hydrolysis; read-out: ID50 C1s (Anti-C1 activity)
T3 sequence (P09871 438-688 limits assumed): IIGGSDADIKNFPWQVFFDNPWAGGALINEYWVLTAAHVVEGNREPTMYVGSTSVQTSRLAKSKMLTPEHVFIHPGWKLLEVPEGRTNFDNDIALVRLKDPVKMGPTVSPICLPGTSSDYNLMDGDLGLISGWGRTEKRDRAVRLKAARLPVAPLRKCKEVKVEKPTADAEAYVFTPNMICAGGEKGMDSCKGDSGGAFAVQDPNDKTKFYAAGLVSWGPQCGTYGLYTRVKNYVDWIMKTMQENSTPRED
T3 sequence (P09871 16-437 partner limits assumed): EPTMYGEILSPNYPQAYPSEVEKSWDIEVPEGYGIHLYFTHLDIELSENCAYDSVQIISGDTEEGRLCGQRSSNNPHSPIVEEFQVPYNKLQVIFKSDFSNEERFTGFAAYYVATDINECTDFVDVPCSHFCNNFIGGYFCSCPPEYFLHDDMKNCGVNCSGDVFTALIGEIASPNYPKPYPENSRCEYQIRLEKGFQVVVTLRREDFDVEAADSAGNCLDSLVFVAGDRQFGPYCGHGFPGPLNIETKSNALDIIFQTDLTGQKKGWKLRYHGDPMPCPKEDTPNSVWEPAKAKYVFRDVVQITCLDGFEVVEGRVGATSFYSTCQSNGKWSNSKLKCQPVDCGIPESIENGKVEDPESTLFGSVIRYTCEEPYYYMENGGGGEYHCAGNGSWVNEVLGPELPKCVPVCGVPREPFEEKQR
Description: The anti-C1 esterase (C1r, C1s) activity was determined according to the method of Okamura et al. [K. Okamura, M. Muramatsu and B. Fujii, Biochem. Biophys. Acta, 295, 252-257 (1973)]. The inhibition of complement mediated hemolysis was determined according to the method of Baker et al. [B. R. Baker and E. H. Erickson, J. Med. Chem. 12, 408-414 (1969)]. The figures in Table 2 have the following meanings:
C1s: Molar concentration of the test compound which inhibits 50% of the ability of C1s to hydrolyse ATEE (acetyltyrosin ethyl ester) (ID50).

[7] = system: complement; assay: Inhibition of complement mediated hemolysis; assay type: cell-based
Description: The complement mediated hemolysis is widely used as a means to determine the titration of complement. The principle of this method is based on the fact that hemolysis is caused by the activation of complement, when the latter is added to a complex (immune complex) of erythrocytes and the antibody thereof. The degree of hemolysis varies in proportion to the amount of complement added. Therefore, when a known amount of complement admixed with a C1 esterase inhibitor is used, the hemolysis must be suppressed in proportion to the inhibitory activity.
The anti-C1 esterase (C1r, C1s) activity was determined according to the method of Okamura et al. [K. Okamura, M. Muramatsu and B. Fujii, Biochem. Biophys. […] The figures in Table 2 have the following meanings: […]

[8] = molar concentration inhibiting 50% of TAME hydrolysis

Chain of Plasmin (P00747 581-810 limits assumed, species assumed): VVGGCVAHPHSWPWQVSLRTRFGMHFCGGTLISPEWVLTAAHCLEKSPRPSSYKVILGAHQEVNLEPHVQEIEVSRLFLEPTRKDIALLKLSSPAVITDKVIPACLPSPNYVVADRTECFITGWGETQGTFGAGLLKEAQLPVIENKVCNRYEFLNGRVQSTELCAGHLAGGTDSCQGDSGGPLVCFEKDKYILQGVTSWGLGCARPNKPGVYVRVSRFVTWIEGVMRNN
Chain of Plasmin (P00747 97-580 partner limits assumed, species assumed): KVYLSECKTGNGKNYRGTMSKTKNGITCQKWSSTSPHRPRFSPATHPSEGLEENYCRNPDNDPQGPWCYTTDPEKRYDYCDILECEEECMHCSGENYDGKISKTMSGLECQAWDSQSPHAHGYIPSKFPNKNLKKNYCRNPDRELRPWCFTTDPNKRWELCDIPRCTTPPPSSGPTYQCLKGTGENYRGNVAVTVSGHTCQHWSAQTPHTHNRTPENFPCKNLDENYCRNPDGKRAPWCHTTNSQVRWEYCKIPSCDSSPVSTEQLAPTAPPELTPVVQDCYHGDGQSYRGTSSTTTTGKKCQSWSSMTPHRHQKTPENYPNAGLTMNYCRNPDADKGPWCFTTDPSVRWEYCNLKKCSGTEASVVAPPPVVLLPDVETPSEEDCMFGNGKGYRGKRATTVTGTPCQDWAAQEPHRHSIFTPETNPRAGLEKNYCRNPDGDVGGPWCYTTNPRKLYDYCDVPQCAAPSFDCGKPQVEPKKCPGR

inhibition at 10 µM ([4]; figure in parentheses, at 1×10^-5 M, TAME, read-out: percentage inhibition of thrombin) | SMILES | IC50 [1] | IC50 [2] | IC50 [3] | IC50 [5] | IC50 [6] | Inhibition of complement mediated hemolysis (%) ([7]; 1 × 10^-5) | Inhibition of complement mediated hemolysis (%) ([7]; 1 × 10^-6) | Inhibition of complement mediated hemolysis (%) ([7]; 1 × 10^-7) | IC50 [4] | IC50 [4, 8]
46% | N=C(N)NCc1ccc(C(=O)Oc2ccc3cc(C(=N)N)ccc3c2)s1 [compound 28] | 4000 nM | 9000 nM | 4000 nM | 2000 nM | 3000 nM | 100% | 82% | 35% |  | 
 | N=C(N)c1ccc2cc(OC(=O)c3ccc(CN)o3)ccc2c1 [compound 33] | 500 nM | 400 nM | 4000 nM | 700 nM | 2000 nM | 97% | 97% | 81% | 3000 nM | 
 | N=C(N)c1ccc2cc(OC(=O)c3ccc(CNC(=O)C(N)CCCCN)o3)ccc2c1 (stereo not drawn) [compound 35] | 8000 nM | 3000 nM | 900 nM | 2000 nM | 3000 nM | 100% | 100% | 71% | 3000 nM | 
 | N=C(N)c1ccc2cc(OC(=O)c3ccc(CNC(=O)C(N)COCc4ccccc4)o3)ccc2c1 (stereo not drawn) [compound 36] | 200 nM | 600 nM | 600 nM | 500 nM | 4000 nM | 100% | 100% | 68% |  | 300 nM
 | N=C(N)c1ccc2cc(OC(=O)c3ccc(NC(=O)C4CCC(CN)CC4)o3)ccc2c1 (stereo not drawn) [compound 37] | 700 nM | 400 nM | 400 nM | 3000 nM | 400 nM | 99% | 78% | 12% |  | 900 nM
 | N=C(N)c1ccc2cc(OC(=O)c3ccc(CNC(=O)C4CCC(CN)CC4)o3)ccc2c1 (stereo not drawn) [compound 38] | 500 nM | 400 nM | 300 nM | 300 nM | 3000 nM | 100% | 100% | 98% |  | 80 nM
 | N=C(N)c1ccc2cc(OC(=O)c3ccc(CCNC(=O)C4CCC(CN)CC4)o3)ccc2c1 (stereo not drawn) [compound 39] | 800 nM | 400 nM | 500 nM | 400 nM | 4000 nM | 100% | 100% | 71% |  | 2000 nM
